pIC50: −log10 of the molar value.
What follows are compounds tested against T1, Signal transducer and activator of transcription 1-alpha/beta (Homo sapiens, UniProt P42224) (assay: Inhibition of Stat1 (unknown origin) expressed in LPS/INF-gamma-stimulated human MONO-MAC-6 cells assessed as reduction in GAS dependent transcription activity measured after 4 hrs by luciferase reporter gene assay).
T1 sequence (P42224 whole entry): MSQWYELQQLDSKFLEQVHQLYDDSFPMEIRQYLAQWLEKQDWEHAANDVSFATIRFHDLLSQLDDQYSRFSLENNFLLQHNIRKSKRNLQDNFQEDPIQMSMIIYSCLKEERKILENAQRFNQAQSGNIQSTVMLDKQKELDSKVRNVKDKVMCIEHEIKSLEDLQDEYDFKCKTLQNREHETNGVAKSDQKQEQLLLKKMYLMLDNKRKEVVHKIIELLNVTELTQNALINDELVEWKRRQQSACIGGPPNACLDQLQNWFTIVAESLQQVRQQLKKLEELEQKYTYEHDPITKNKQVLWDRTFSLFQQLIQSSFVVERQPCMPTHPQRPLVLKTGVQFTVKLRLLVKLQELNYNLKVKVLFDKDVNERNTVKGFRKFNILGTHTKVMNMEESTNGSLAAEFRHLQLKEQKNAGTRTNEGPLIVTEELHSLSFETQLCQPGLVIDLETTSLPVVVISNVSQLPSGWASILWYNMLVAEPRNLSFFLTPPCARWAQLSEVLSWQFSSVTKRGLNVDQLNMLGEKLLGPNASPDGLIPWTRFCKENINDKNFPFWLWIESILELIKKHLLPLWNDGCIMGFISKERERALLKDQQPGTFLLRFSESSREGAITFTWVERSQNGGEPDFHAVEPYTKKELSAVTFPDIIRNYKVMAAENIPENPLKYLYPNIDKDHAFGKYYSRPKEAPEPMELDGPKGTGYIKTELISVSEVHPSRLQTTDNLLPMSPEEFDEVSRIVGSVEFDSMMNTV

First: C=C[C@H]1CC[C@]23C[C@@H]4[C@H](C)C(=O)[C@H]5O[C@]54[C@@]2(C)C[C@H](O)[C@]13C
Second: C=C[C@H]1CC[C@]23C[C@@H]4[C@H](C)[C@@H](O)[C@H]5O[C@@]45[C@@]2(C)CC(=O)[C@]13C
The pIC50 of the first is higher: 5.70 for the first, under 4.30 for the second.

First: CC(C)[C@H]1CC[C@]23C[C@@H]4[C@H](C)C(=O)[C@H]5O[C@]54[C@@]2(C)[C@@H](O)C(=O)[C@]13C
Second: CC(C)[C@H]1CC[C@]23C[C@@H]4[C@H](C)C(=O)[C@H]5O[C@]54[C@@]2(C)CC(=O)[C@]13C
The pIC50 of the first is 0.55 log units lower: 5.15 for the first, 5.70 for the second. The second is the more potent here.
